Test results: patent US10669272B2, “Substituted naphthyridinone compounds useful as T cell activators” (BRISTOL-MYERS SQUIBB COMPANY, priority 2018, dated 2020)
Like-named read-outs stand apart in the source and are kept apart here.

Legend:
human DGKα = molecular target: T1, human DGKα (Homo sapiens, UniProt P23743); assay: DGKα LIPGLO assay (extruded liposome substrate), in vitro DGK inhibition; assay type: biochemical; conditions: read-out: DGKa LIPGLO IC50
T1 construct: TVMV protease cleavage site (C); Hexa-His (C); made in house; host or cells: Sf9 insect cells (baculovirus, Bac-to-Bac)

human DGKζ = molecular target: T2, human DGKζ (Homo sapiens, UniProt Q13574); assay: DGKζ LIPGLO assay (extruded liposome substrate), in vitro DGK inhibition; assay type: biochemical; conditions: read-out: DGKz LIPGLO IC50
T2 construct: TVMV protease cleavage site (C); Hexa-His (C); made in house; host or cells: Sf9 insect cells (baculovirus, Bac-to-Bac)

Human venous whole blood = assay: Human whole blood IFN-γ assay; assay type: cell-based; conditions: human whole blood, read-out: INFg Whole Blood Normalized Agonist EC50;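 note: blood from healthy donors exposed to compound for 1 h before stimulation with anti-CD3 and anti-CD28 at 1 µg/mL each, IFN-γ quantified in supernatant by AlphaLISA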
Protocol: Human Whole Blood IFN-γ Assay
Human venous whole blood (22.5 μL per well), obtained from healthy donors, was pre-treated with compounds for one hour at 37° C. in a humidified 95% air/5% CO2 incubator. The blood was stimulated with 2.5 μL anti-human CD3 and anti-CD28 mAb at a final concentration of 1 μg/mL each for 24 hours at 37° C. IFN-γ in the supernatants was measured using AlphLISA kit (Cat # AL217).

[1] = Homo sapiens, 24 h, normalized to 3 μM reference compound with anti-CD3 plus anti-CD28 as 100% activation
[2] = normalized to 3 μM reference compound with anti-CD3 plus anti-CD28 as 100% activation
[3] = anti-CD3 plus anti-CD28, 24 hours, 3 μM reference compound = 100% activation

T1 sequence (P23743 with tags, fused parts or gaps): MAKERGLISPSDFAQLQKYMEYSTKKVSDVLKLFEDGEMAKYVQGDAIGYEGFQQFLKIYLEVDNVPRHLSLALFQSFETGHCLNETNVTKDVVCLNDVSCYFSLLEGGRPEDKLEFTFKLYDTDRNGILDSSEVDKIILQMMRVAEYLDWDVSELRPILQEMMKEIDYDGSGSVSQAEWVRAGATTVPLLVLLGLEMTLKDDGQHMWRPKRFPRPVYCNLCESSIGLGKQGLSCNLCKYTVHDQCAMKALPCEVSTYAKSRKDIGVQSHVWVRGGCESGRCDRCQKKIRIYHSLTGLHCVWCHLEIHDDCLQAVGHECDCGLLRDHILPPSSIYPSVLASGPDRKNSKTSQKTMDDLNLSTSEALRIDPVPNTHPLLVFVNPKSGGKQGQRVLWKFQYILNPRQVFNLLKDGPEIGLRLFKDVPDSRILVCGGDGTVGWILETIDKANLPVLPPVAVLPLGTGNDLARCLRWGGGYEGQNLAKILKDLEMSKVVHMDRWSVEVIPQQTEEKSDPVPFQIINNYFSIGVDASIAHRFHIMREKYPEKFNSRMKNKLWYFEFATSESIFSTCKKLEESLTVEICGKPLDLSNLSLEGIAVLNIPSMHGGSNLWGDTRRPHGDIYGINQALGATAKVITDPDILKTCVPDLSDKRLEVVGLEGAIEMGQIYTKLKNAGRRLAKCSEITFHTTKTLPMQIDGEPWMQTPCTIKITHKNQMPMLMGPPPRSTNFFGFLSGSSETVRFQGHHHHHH
T2 sequence (Q13574 with tags, fused parts or gaps isoform Q13574-4): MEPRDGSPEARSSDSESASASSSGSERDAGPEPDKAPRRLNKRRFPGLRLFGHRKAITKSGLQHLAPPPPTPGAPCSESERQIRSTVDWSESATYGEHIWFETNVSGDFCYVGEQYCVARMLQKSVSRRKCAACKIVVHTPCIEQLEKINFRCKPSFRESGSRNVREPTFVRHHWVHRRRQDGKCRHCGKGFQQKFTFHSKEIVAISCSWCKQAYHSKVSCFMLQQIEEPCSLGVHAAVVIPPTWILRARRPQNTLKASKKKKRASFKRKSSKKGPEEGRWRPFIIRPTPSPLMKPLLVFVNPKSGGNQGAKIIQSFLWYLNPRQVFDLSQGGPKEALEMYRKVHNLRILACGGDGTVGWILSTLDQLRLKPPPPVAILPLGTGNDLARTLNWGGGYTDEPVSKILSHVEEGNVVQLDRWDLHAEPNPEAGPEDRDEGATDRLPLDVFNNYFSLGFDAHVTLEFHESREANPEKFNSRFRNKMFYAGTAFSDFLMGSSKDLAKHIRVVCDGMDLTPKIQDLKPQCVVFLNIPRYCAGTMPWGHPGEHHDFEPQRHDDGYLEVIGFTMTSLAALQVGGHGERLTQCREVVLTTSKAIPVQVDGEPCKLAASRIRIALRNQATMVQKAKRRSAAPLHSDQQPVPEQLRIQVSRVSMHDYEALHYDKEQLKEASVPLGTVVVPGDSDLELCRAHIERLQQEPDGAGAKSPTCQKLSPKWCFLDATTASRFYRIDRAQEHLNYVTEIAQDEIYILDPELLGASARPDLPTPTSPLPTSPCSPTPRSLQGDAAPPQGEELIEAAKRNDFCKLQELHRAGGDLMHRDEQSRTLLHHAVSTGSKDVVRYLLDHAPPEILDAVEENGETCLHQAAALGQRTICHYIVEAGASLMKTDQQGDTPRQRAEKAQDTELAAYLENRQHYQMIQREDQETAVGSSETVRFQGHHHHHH

Row | Compound | IC50 (human DGKα; liposome (LIPGLO) assay) | IC50 (human DGKζ; liposome (LIPGLO) assay) | EC50 (Human venous whole blood; [1]) | EC50 (Human venous whole blood; [2]) | IC50 (human DGKα; DGKα liposome (LIPGLO) assay) | IC50 (human DGKζ; DGKζ liposome (LIPGLO) assay) | EC50 (Human venous whole blood; Homo sapiens, 24 h, anti-CD3 plus anti-CD28, 24 hours, 3 μM reference compound = 100% activation) | EC50 (Human venous whole blood; [3])
1 | C[C@@H]1CN(c2cc(=O)n(C)c3ccc(C#N)nc23)[C@@H](C)CN1Cc1coc(-c2cccs2)n1 [Example 1434] | 2100 nM | 960 nM | 21000 nM | – | – | – | – | –
2 | C[C@@H]1CN(c2cc(=O)n(C)c3ccc(C#N)nc23)[C@@H](C)CN1C(c1ccccn1)c1ccc(F)cc1F (single isomer, unassigned) [Example 683] | 470 nM | 23000 nM | – | 1500 nM | – | – | – | –
3 | C[C@@H]1CN(c2c(C#N)c(=O)n(C)c3ccc(C#N)nc23)CCN1C(c1ccc(F)cc1)c1ccc(C#N)cc1 (single isomer, unassigned) [Example 871] | – | – | – | – | 1100 nM | 1300 nM | 3000 nM | –
4 | CCc1noc(C(c2ccc(F)cc2)N2C[C@H](C)N(c3cc(=O)n(C)c4ccc(C#N)nc34)C[C@H]2C)n1 (single isomer, unassigned) [Example 753] | – | – | – | – | 400 nM | 160 nM | – | 640 nM
5 | Cc1ccc(C(c2ccc(C#N)cc2)N2C[C@H](C)N(c3c(F)c(=O)n(C)c4ccc(C#N)nc34)C[C@H]2C)cc1 (stereo partly drawn) [Example 322, 8-((2S,5R)-4-((4-cyanophenyl)(p-tolyl)methyl)-2,5-dimethylpiperazin-1-yl)-7-fluoro-5-methyl-6-oxo-5,6-dihydro-1,5-naphthyridine-2-carbonitrile] | 2700 nM | 2200 nM | 2200 nM | – | – | – | – | –
6 | CC[C@@H]1CN(c2cc(=O)n(C)c3ccc(C#N)nc23)[C@@H](C)CN1C(c1ccc(F)cc1)c1ccnc(C)n1 (single isomer, unassigned) [Example 418] | 1500 nM | 130 nM | – | 280 nM | – | – | – | –
7 | C[C@@H]1CN(c2cc(=O)n(C)c3ccc(C#N)nc23)[C@@H](C)CN1C(c1ccc(F)cc1)c1nc(N2CCOCC2)no1 (stereo partly drawn) [Example 749] | – | – | – | – | 670 nM | 580 nM | – | 1200 nM
8 | Cc1cc(C(c2ccc(F)cc2)N2C[C@H](C)N(c3cc(=O)n(C)c4ccc(C#N)nc34)C[C@H]2C)no1 (single isomer, unassigned) [Example 733] | – | – | – | – | 4100 nM | 1500 nM | – | 3500 nM
9 | C[C@@H]1CN(c2cc(=O)n(C)c3ccc(C#N)nc23)[C@@H](C)CN1Cc1ccc(OC(F)(F)F)cc1F (single isomer, unassigned) [Example 591] | 3100 nM | 3900 nM | 19000 nM | – | – | – | – | –
10 | Cc1ccnc(C(c2ccc(Cl)cc2)N2C[C@H](C)N(c3cc(=O)n(C)c4ccc(C#N)nc34)C[C@H]2C)c1 (single isomer, unassigned) [Example 448] | 660 nM | 660 nM | – | 1100 nM | – | – | – | –
11 | C[C@@H]1CN(c2c(C#N)c(=O)n(C)c3ccc(C#N)nc23)CCN1C(c1ccc(F)cc1)c1cn(C)cn1 (single isomer, unassigned) [Example 1027] | 29000 nM | 2200 nM | – | 7300 nM | – | – | – | –
12 | C[C@@H]1CN(c2cc(=O)n(C)c3ccc(C#N)nc23)[C@@H](C)CN1C(COC(F)F)c1ccc(F)cc1 (single isomer, unassigned) [Example 1189] | 810 nM | 2600 nM | 1200 nM | – | – | – | – | –
13 | C[C@@H]1CN(c2c(C#N)c(=O)n(C)c3ccc(C#N)nc23)CCN1C(c1ccc(F)cc1)c1ccc(C(F)(F)F)cc1 (single isomer, unassigned) [Example 914] | – | – | – | – | 1300 nM | 1500 nM | – | 1900 nM
14 | C[C@@H]1CN(c2cc(=O)n(C)c3ccc(C#N)nc23)[C@@H](C)CN1C(c1ccc(OC(F)(F)F)cc1F)C1CC1 (single isomer, unassigned) [Example 480] | 1600 nM | 1800 nM | 4900 nM | – | – | – | – | –
15 | CC[C@@H]1CN(c2cc(=O)n(C)c3ccc(C#N)nc23)[C@@H](C)CN1C(c1ccc(Cl)cc1)c1ccccn1 (single isomer, unassigned) [Example 422] | 120 nM | 89 nM | – | 220 nM | – | – | – | –
16 | CC(C)c1nnc(C(c2ccc(F)cc2)N2C[C@H](C)N(c3cc(=O)n(C)c4ccc(C#N)nc34)C[C@H]2C)s1 (single isomer, unassigned) [Example 773] | – | – | – | – | 760 nM | 700 nM | – | 7900 nM
17 | COCc1ccc(C(C)N2C[C@H](C)N(c3cc(=O)n(C)c4ccc(C#N)nc34)C[C@H]2C)cc1 (stereo partly drawn) [Example 1265] | 49 nM | 48 nM | – | 120 nM | – | – | – | –
18 | COC(=O)C1CN(c2cc(=O)n(C)c3ccc(C#N)nc23)CCN1C(c1ccc(Cl)cc1)c1ccc(Cl)cc1 (single isomer, unassigned) [Example 96, methyl 1-(bis(4-chlorophenyl)methyl)-4-(6-cyano-1-methyl-2-oxo-1,2-dihydro-1,5-naphthyridin-4-yl)piperazine-2-carboxylate] | 240000 nM | 14000 nM | – | 13000 nM | – | – | – | –
19 | C[C@@H]1CN(c2c(C#N)c(=O)n(C)c3ccc(C#N)nc23)CCN1C(c1ccc(F)cc1)c1ncccc1F (single isomer, unassigned) [Example 893] | – | – | – | – | 920 nM | 720 nM | – | 1700 nM
20 | CC(c1ccc(OC(F)(F)F)cc1)N1C[C@H](CO)N(c2cc(=O)n(C)c3ccc(C#N)nc23)C[C@H]1C (single isomer, unassigned) [Example 1419] | 75 nM | 680 nM | 1100 nM | – | – | – | – | –
21 | CC[C@H]1CN(C(c2ccc(F)cc2)c2ccc(C(F)(F)F)cn2)[C@H](CC)CN1c1cc(=O)n(C)c2ccc(C#N)nc12 (stereo partly drawn) [Example 1039] | 110 nM | 87 nM | 91 nM | – | – | – | – | –
22 | CC(C)c1nnc(C(c2ccc(F)cc2)N2C[C@H](C)N(c3cc(=O)n(C)c4ccc(C#N)nc34)C[C@H]2C)s1 (single isomer, unassigned) [Example 772] | – | – | – | – | 4.7 nM | 27 nM | – | 1400 nM
23 | CC[C@@H]1CN(c2cc(=O)n(C)c3ccc(C#N)nc23)[C@@H](C)CN1C(C)c1ccc(C(F)(F)F)cc1 (single isomer, unassigned) [Example 1093] | 250 nM | 180 nM | 130 nM | – | – | – | – | –
24 | CC[C@H]1CN(C(C)c2ccc(OC(F)(F)F)cc2)[C@H](C)CN1c1cc(=O)n(C)c2ccc(C#N)nc12 (single isomer, unassigned) [Example 1141] | 8.3 nM | 370 nM | – | 470 nM | – | – | – | –
25 | CC(c1ccc2nccnc2c1)N1C[C@H](C)N(c2cc(=O)n(C)c3ccc(C#N)nc23)C[C@H]1C (single isomer, unassigned) [Example 651] | 50000 nM | 950 nM | – | 20000 nM | – | – | – | –
26 | C[C@@H]1CN(c2cc(=O)n(C)c3ccc(C#N)nc23)[C@@H](C)CN1Cc1ccc(Cl)cc1 [Example 604] | 310 nM | 2000 nM | 4800 nM | – | – | – | – | –
27 | CCC(c1ccc(OC(C)C)cc1)N1C[C@H](C)N(c2cc(=O)n(C)c3ccc(C#N)nc23)C[C@H]1CC (single isomer, unassigned) [Example 1448] | 4200 nM | 1700 nM | – | 1600 nM | – | – | – | –
28 | C[C@@H]1CN(c2c(C#N)c(=O)n(C)c3ccc(C#N)nc23)[C@@H](C)CN1C(c1ccccc1)c1ccc(F)cc1 (stereo partly drawn) [Example 808] | – | – | – | – | 4200 nM | 1600 nM | – | 1300 nM
29 | C[C@@H]1CN(c2c(C#N)c(=O)n(C)c3ccc(C#N)nc23)[C@@H](C)CN1C(c1ccc(F)cc1)c1ccon1 (single isomer, unassigned) [Example 850] | – | – | – | – | 510 nM | 5400 nM | – | 3600 nM
